Tests used:
Staphylococcus carnosus = assay: TAPS (Trans Acting Peptide System) assay, radial diffusion read-out; type: cell-based; design: key: classified as 4>3>2>1; whereas 4 is better than 1; classified as 4>3>2>1; classified as 4>3>2>1; wildtype activity corresponds to 1; settings: peptide expressed in E. coli
Experimental: A range of antimicrobial polypeptides, which are variants of SEQ ID NO: 1, were tested in the TAPS assay. TAPS may be used to identify new or improved genes encoding peptides that can kill or inhibit the growth of target cells (see PCT application WO 2004/033715). The TAPS assay, an acronym for Trans Acting Peptide System, is based on having a sensitive host producing a peptide followed by screening for its activity in trans against an indicator strain. The advantage of this system is based on that the antimicrobial peptide is expressed in the Gram-negative bacterium E. coli and its antimicrobial activity can be monitored on different microbes including Gram-negatives, positives or fungi. Additionally, TAPS offers the possibility to produce correctly folded AMPs containing disulfide bonds in the host cells, thereby retaining their antimicrobial activities.
The TAPS approach requires first, that expression of the peptide is under control of an inducible promoter with tight regulation, because the host cells are sensitive to the peptide when producing it. Secondly, the produced peptide has to be released to the media so that it can interact with the target organism.
The TAPS screening can be carried out either in solid or liquid media. On solid media, a plasmid library is initially introduced into E. coli host cells. […] In the next step, the filter containing the colonies is transferred to LB growth medium containing inducer (0.1% arabinose) to permit peptide synthesis. Subsequently, the target strain, for example S. carnosus, is overlaid onto the plate and allowed to grow for 12-16 hours at 37° C. Finally, visual inspection of the host cells capable of reducing the proliferation of the target cells is performed and the nucleotide sequence encoding for the antimicrobial peptide is recovered from the host cells. DNA sequence analysis of the variants is obtained to elucidate the nature of the peptide.
As mentioned above, the TAPS screening can also be performed using liquid medium. This procedure requires the use of robotics to analyze large number of clones. In this system, the host E. coli origami cells are transformed with the plasmid library and plated out on LB medium+0.2% glucose+ampicillin (200 mg/L). Independent colonies are then inoculated into 96 or 384-well plates containing 200 micro-L of TB medium+ampicillin (200 mg/L) and cultured overnight at 37° C. These cultures are then replicated robotically and grown to exponential phase until inducer (0.1% arabinose) is added to trigger peptide synthesis. The next step consists in hydrolyzing the cells such that the peptide is released to the media by hot acid hydrolysis. This treatment consists on adding 1 M sodium Phosphate buffer pH 2.3 to obtain a final pH approximately of 2.3 and incubating the cultures overnight at 80° C. Next day, a 25 micro-L aliquot of the hydrolyzed cultures is used to perform an activity test against the desired target organisms. The activity test performed was a Radial Diffusion Assay (RDA) where an aliquot of the hydrolyzed cultures was added to the agarose media inoculated with the target strain, S. carnosus. […] Measurements of the diameter of the clearing zones were performed to quantify the potency of the antimicrobial activity of the peptides.
The antimicrobial activity (against Staphylococcus carnosus) of the tested plectasin variants, which was measured using the TAPS assay, is shown in table 3. The antimicrobial activity corresponds to the clearing zone size and has been classified as 4>3>2>1; whereas 4 is better than 1, and wildtype activity corresponds to 1.

[1] = system: panel of 6 different strains of Staphylococcus aureus; assay: Average MIC, NCCLS/CLSI guidelines using caMHB (Example 6); type: cell-based; settings: average over 6 S. aureus strains, duplicate; MIC above 32 counted as 64; read after 18-24 hours at 37° C.
How it was run: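 Six Staphylococcus aureus strains, MSSA and MRSA, were exposed in duplicate to peptide dilutions from 32 down to 0.03 microgram/mL in caMHB following CLSI guidance. Growth was scored after 18-24 h incubation at 37° C. The tabulated value is the mean MIC, with 64 used for any MIC >32 micrograms/mL.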

[2] = system: Staphylococcus aureus, ATCC 29213; assay: MIC, NCCLS/CLSI guidelines (Example 5), strain A; type: cell-based; settings: relative to wildtype Plectasin; average of two independent experiments
How it was run: (§1)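 Scores express each variant's MIC as a fraction of wild-type plectasin MIC (0: >100%; 1: 80-100%; 2: 50-80%; 3: <50%), averaged over two independent runs. Purified recombinant peptides; MIC by the CLSI (formerly NCCLS) method.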

[3] = system: Staphylococcus aureus, ATCC 25923; assay: MIC, NCCLS/CLSI guidelines (Example 5), strain B; type: cell-based; settings: relative to wildtype Plectasin; average of two independent experiments
How it was run: as §1

[4] = system: Staphylococcus aureus, ATCC 29737; assay: MIC, NCCLS/CLSI guidelines (Example 5), strain C; type: cell-based; settings: relative to wildtype Plectasin; average of two independent experiments
How it was run: as §1

[5] = system: Staphylococcus aureus, MRSA ST5 (2001); assay: MIC, NCCLS/CLSI guidelines (Example 5), strain D; type: cell-based; settings: relative to wildtype Plectasin; average of two independent experiments
How it was run: (§2)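 Expressed, purified plectasin wild-type and variant peptides were tested for minimal inhibitory concentration under NCCLS/CLSI guidelines. Values are the mean of two independent experiments, scored relative to wild-type plectasin MIC: 0 >100%, 1 80-100%, 2 50-80%, 3 <50%.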

[6] = system: Staphylococcus aureus, MRSA ST80 (2003); assay: MIC, NCCLS/CLSI guidelines (Example 5), strain E; type: cell-based; settings: relative to wildtype Plectasin; average of two independent experiments
How it was run: as §2

S. aureus = assay: Minimal Inhibitory Concentration, NCCLS guidelines (Example 4); type: cell-based, Staphylococcus aureus; settings: purified peptide
Experimental: (§3) The Minimal Inhibitory Concentration (MIC, micrograms/mL) was determined to test for their antimicrobial activity following the NCCLS guidelines (Clinical and Laboratory Standards Institute; formerly known as National Committee for Clinical and Laboratory Standards).

M. luteus = assay: as above; type: cell-based, Micrococcus luteus; settings: purified peptide
Experimental: as §3

B. subtilis = assay: as above; type: cell-based, Bacillus subtilis; settings: purified peptide
Experimental: as §3

Substance: GFGCNGPWDEDDMRCHNHCKSIKGYKGGYCAKGGFVCKCYR [Q14R + Y40YR]
- Activity (antimicrobial activity, clearing zone size) (Staphylococcus carnosus): 3

Substance: GFGCYGPWDEDDMLCHNHCKSIKGYKGGYCAKGGFVCKCY [N5Y + Q14L]
- Activity (antimicrobial activity, clearing zone size) (Staphylococcus carnosus): 2

Substance: GFGCNGPWDEDDMQCHNHCKSIKGYRGGYCAKGGFVCKCY [Mutation K26R]
- Activity (antimicrobial activity, clearing zone size) (Staphylococcus carnosus): 3
- Average MIC [1]: 15 micrograms/mL

Substance: GFGCNGPWDEDDMRCHNHCKSIKGYKGGYCAKGGFVCKCY [Mutation Q14R]
- Activity (antimicrobial activity, clearing zone size) (Staphylococcus carnosus): 4
- Relative MIC, strain A [2]: 2 (50-80% of Plectasin wildtype MIC)
- Relative MIC, strain B [3]: 3 (<50% of Plectasin wildtype MIC)
- Relative MIC, strain C [4]: 3 (<50% of Plectasin wildtype MIC)
- Relative MIC, strain D [5]: 3 (<50% of Plectasin wildtype MIC)
- Relative MIC, strain E [6]: 0 (>100% of Plectasin wildtype MIC)
- Average MIC [1]: 5 micrograms/mL

Substance: Q14K + K26R: variant of Plectasin (SEQ ID NO: 1) (GFGCNGPWDEDDMKCHNHCKSIKGYRGGYCAKGGFVCKCY)
- MIC against S. aureus (S. aureus): 2 micrograms/mL
- MIC against M. luteus (M. luteus): 1 micrograms/mL
- MIC against B. subtilis (B. subtilis): 0.13 micrograms/mL
- Relative MIC, strain A [2]: 3 (<50% of Plectasin wildtype MIC)
- Relative MIC, strain B [3]: 2 (50-80% of Plectasin wildtype MIC)
- Relative MIC, strain C [4]: 3 (<50% of Plectasin wildtype MIC)
- Relative MIC, strain D [5]: 3 (<50% of Plectasin wildtype MIC)
- Relative MIC, strain E [6]: 3 (<50% of Plectasin wildtype MIC)
- Average MIC [1]: 6 micrograms/mL

Substance: GFGCNGPWDEDDKQCHNHCKSIKGYKGGYCAKGGFVCKCY [Mutation M13K]
- Activity (antimicrobial activity, clearing zone size) (Staphylococcus carnosus): 3
- Average MIC [1]: 12 micrograms/mL

Substance: GFGCNGPWDEGDMQCHNHCKSIKGYRGGYCAKGGFVCKCYR (Synthetic antimicrobial polypeptide) [D11G + K26R + Y40YR]
- Activity (antimicrobial activity, clearing zone size) (Staphylococcus carnosus): 4
- MIC against S. aureus (S. aureus): 0.50 micrograms/mL
- MIC against M. luteus (M. luteus): 0.25 micrograms/mL
- MIC against B. subtilis (B. subtilis): 0.06 micrograms/mL
- Relative MIC, strain A [2]: 3 (<50% of Plectasin wildtype MIC)
- Relative MIC, strain B [3]: 3 (<50% of Plectasin wildtype MIC)
- Relative MIC, strain C [4]: 3 (<50% of Plectasin wildtype MIC)
- Relative MIC, strain D [5]: 3 (<50% of Plectasin wildtype MIC)
- Average MIC [1]: 9 micrograms/mL

Substance: GFGCYGPWDEDDMQCHNHCKSIKGYKGGYCAKGGFVCKCY [Mutation N5Y]
- Activity (antimicrobial activity, clearing zone size) (Staphylococcus carnosus): 2

Substance: GFGCNGPWDEDDMQCHNHCRSIKGYKGGYCAKGGFVCKCY [Mutation K20R]
- Activity (antimicrobial activity, clearing zone size) (Staphylococcus carnosus): 2

Substance: GFGCNGPWDEDDMQCHIHCKSIKGYKGGYCAKGGFVCKCY [Mutation N17I]
- Activity (antimicrobial activity, clearing zone size) (Staphylococcus carnosus): 2
- Average MIC [1]: 14 micrograms/mL

Substance: GFGCNGPWDEDDMQCHNHCKFIKGYKGGYCTKGGFVCKCY [S21F + A31T]
- Activity (antimicrobial activity, clearing zone size) (Staphylococcus carnosus): 2

Substance: GFGCNGPWDEDDMQCHRHCKSIKGYKGGYCAKGGFVCKCYR [N17R + Y40YR]
- Activity (antimicrobial activity, clearing zone size) (Staphylococcus carnosus): 3

Substance: GFGCNGPWDEDDKQCHNHCKSIKGYRGGYCAKGGFVCKCY [M13K + K26R]
- Activity (antimicrobial activity, clearing zone size) (Staphylococcus carnosus): 4
- Average MIC [1]: 10 micrograms/mL
